# Reference: patent publication US20210024975A1, “METHODS FOR IDENTIFYING INHIBITORS OF LIPID A DEACYLASE AND […] RELATED TO SAME” (UNIVERSITY OF WASHINGTON, priority 2019, published 2021)
# Tested on: P. gingivalis 33277 mutants
# Experiment: polymixin B sensitivity of P. gingivalis strains
# Format: cell-based, Porphyromonas gingivalis
# Settings: J5-c5 transposon mutant; similar to the wild-type bacterium
substance,measurement,value
polymixin B,polymixin B sensitivity of J5-c5 mutants,resistance
